{"source": "patent US20100047221A1", "about": "“COMPOSITIONS COMPRISING PYRUVATE ALKYL ESTERS AND USES THEREOF” (priority 2006, published 2010)", "key": {"[1]": {"assay": "Gastric reflux (heartburn) in the taste assessment experiment", "assay_type": "in vivo, human", "details": "panel of 10 individuals; about 30 ml liquid composition, oral", "experimental": "(§1) A panel of 10 individuals ingested a liquid composition (about 30 ml) at room temperature comprising ethylpyruvate (about 1 weight-percent) to provide a taste assessment. The panel was additionally provided a corresponding liquid composition of methylpyruvate (i.e., methyl ester of pyruvic acid) for comparative tasting. […] Without wishing to be bound by theory, it is believed that the sour taste associated with methylpyruvate results from hydrolysis of methylpyruvate within the sample to pyruvic acid, with the associated source taste of an acid. In contrast, the taste associated with ethylpyruvate appears to reflect a lack of hydrolysis to pyruvic acid in the sample.\nIn the taste assessment experiment (Example 2), gastric reflux (i.e., “heartburn”) was a considerable problem (i.e., 5 of 10 individuals reporting such) with methylpyruvate, but none reporting similar reaction with ethylpyruvate."}, "[2]": {"assay": "Athlete oral ingestion before and during daily workouts", "assay_type": "in vivo, human", "details": "12 athletes, 4x500 mL per day, about 0.06 weight-percent in water, four days", "experimental": "A group of 12 athletes (19-22 years of age) self-administered oral ethylpyruvate in solution (4×500 mL ingested per day of a solution of about 0.06 weight-percent ethylpyruvate in water) before and during daily workouts (approximately 2 hours duration) for four days. The athletes having ingested oral ethylpyruvate reported less fatigue at the end of each workout, and similar favorable reports continued each day for the four days of practice."}, "[3]": {"assay": "Stability in solution at room temperature, judged by appearance and taste", "assay_type": "physicochemical", "details": "room temperature (about 50 to 90 degrees F.); judged by appearance (color) and taste", "text": "Without wishing to be bound by theory, it is believed that methyl esters of pyruvic acid are more susceptible to hydrolysis in aqueous solution than are corresponding ethyl esters, which hydrolysis results in the production of pyruvic acid. Pyruvic acid, and the anion thereof, can then react by mechanisms well known in the art, to form a plethora of higher molecular compounds."}, "[4]": {"assay": "Post-surgical oral ingestion by a patient with gastrointestinal inflammation", "assay_type": "in vivo, human", "details": "about 3x500 mL per day", "experimental": "The patient had developed gastrointestinal inflammation and could not tolerate food by mouth for several days post-operative. Furthermore, bowel movements were frequent, watery and bloody, and were accompanied by lower abdominal pain. The patient self administered oral ethylpyruvate (about 3×500 mL per day daily for 1 week of an ethylpyruvate solution in commercial bottled spring water at 0.06 weight-percent ethylpyruvate). Within 3 hours of the initial dosing, persistent pain, hyperactive bowel and diarrhea resolved. The patient additionally reported an improved mood following oral ingestion of ethylpyruvate."}, "[5]": {"assay": "Mood enhancement before and after ingestion in the taste assessment experiment", "assay_type": "in vivo, human", "details": "about 1 weight-percent", "experimental": "as §1\nIn the taste assessment experiment (Example 2), mood was assessed before and after ingestion of the liquid composition comprising ethylpyruvate. […] This mood enhancement commenced at between 5 and 15 minutes and lasted over 6 hours. In one case, the individual stated that the usual afternoon cup of coffee would not be necessary that day due to the ingestion of the composition."}}}
{"smiles": "CCOC(=O)C(C)=O", "note": "[ethylpyruvate]", "values": [{"measurement": "individuals reporting gastric reflux (heartburn)", "setting": "[1]", "result": "none"}, {"measurement": "performance in high-activity training regimens (wind sprints) versus sessions prior to ingestion", "setting": "[2]; each subject", "result": "better performance"}, {"measurement": "fatigue at the end of each workout", "setting": "[2]", "result": "less fatigue"}, {"measurement": "stability in solution versus the methyl ester of pyruvic acid", "setting": "[3]", "result": "higher stability"}, {"measurement": "time from initial dosing to resolution of persistent pain, hyperactive bowel and diarrhea", "setting": "[4]; one patient after surgery and radiation for gastrointestinal carcinoma, 0.06 weight-percent in spring water", "result": "≤ 3", "unit": "h"}, {"measurement": "mood reported by the patient", "setting": "[4]; one patient, 0.06 weight-percent, 1 week", "result": "improved mood"}, {"measurement": "duration of mood enhancement", "setting": "[5]; after ingestion of about 30 ml", "result": "over 6 hours"}, {"measurement": "mood after ingestion", "setting": "[5]; each of 10 individuals, about 30 ml, oral", "result": "increase in feelings of well-being and energy"}]}
